Data taken from patent publication US20090069320A1, “Substituted 4-Amino-Quinazoline Compounds with Metabotropic Glutamate Receptor Regulating Activity and Uses Thereof” (Gruenenthal GmbH, priority 2006, published 2009).

These compounds were tested against T1, mGluR5 receptor (Sus scrofa, UniProt I3LUI7) (assay: [3H]-MPEP mGluR5 receptor binding assay (pig brain homogenate)). Settings: 5 nM [3H]-MPEP, read-out: IC50 mGluR5 Receptor (pig) [^3H]-MPEP Bond.
T1 construct: 450 μg of protein from brain homogenate with 5 nM ^3[H]-MPEP; from tissue; host or cells: pig brain halves without medulla, cerebellum and pons
Experimental: I. Method for Determining the Inhibition of the [^3H]-MPEP Bond in the mGluR5 Receptor Binding Assay
Pig brain homogenate is produced by homogenizing (Polytron PT 3000, Kinematica AG, 10 000 rpm for 90 seconds) pig brain halves without medulla, cerebellum and pons in pH 8.0 buffer (20 mM Hepes, Sigma, order no. H3375+1 complete tablet, 100 ml, Roche Diagnostics, order no. 1836145) in the ratio of 1:20 (brain weight/volume) and differential centrifuging at 900×g and 40 000×g. In incubation batches of 250 μl in 96-well microtitre plates 450 μg of protein from brain homogenate with 5 nM ^3[H]-MPEP (Tocris, order no. R1212) (MPEP=[…]) and the compounds to be examined (10 μM in test) in buffer (as above) are respectively incubated at room temperature for 60 minutes.
The batches are then filtered using a Brandel cell harvester (Brandel, Robotic 9600) on unifilter plates with fibreglass filter mats (Perkin Elmer, order no. 6005177) and then washed with buffer (as above) 3-times each with 250 μl per sample. The filter plates are then dried for 60 mins. at 55° C. Then, 30 μL of Ultima Gold™ scintillator (Packard BioScience, order no. 6013159) are added per well and after 3 hours the samples are measured on the β-counter (MicroBeta, Perkin Elmer). The non-specific binding is determined by adding 10 μM of MPEP (Tocris, order no. 1212).

T1 sequence (I3LUI7 19-1212): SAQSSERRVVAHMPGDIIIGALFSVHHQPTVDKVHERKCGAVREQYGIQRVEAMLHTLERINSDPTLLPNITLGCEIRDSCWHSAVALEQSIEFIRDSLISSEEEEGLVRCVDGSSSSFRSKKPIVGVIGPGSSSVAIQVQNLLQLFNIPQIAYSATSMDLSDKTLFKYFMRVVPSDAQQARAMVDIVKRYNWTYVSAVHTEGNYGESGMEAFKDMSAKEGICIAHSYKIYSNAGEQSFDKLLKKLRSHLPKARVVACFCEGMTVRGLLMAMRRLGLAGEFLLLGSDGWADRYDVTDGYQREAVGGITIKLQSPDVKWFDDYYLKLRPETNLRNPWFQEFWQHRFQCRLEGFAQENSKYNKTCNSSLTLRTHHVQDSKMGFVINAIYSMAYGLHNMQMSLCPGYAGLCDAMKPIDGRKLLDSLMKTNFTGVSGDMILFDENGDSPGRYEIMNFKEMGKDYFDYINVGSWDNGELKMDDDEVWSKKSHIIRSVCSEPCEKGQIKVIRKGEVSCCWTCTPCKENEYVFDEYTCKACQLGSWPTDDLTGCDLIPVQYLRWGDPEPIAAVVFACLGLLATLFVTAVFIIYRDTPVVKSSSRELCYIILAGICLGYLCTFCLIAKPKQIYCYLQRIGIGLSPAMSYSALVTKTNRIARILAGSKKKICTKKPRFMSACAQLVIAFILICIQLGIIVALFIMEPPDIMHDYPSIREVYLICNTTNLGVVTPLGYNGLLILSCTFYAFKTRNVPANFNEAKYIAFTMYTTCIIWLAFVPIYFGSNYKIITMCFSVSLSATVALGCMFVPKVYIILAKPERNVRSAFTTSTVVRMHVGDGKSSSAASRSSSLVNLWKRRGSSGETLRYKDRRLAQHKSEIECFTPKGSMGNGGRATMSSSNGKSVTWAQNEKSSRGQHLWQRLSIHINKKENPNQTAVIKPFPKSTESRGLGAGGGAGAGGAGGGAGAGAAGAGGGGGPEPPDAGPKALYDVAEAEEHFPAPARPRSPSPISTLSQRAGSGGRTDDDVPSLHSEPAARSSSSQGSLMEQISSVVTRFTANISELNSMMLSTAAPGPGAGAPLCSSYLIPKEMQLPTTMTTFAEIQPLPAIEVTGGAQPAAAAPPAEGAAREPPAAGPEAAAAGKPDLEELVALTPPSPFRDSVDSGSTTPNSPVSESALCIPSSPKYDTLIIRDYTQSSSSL

IC50 | Compound
1470 nM | CCCCC(=O)N(Cc1cccc(-c2ccc3ncnc(NC4CC4)c3c2)c1)C1CC1 [Example 256, pentanoic acid cyclopropyl-[3-(4-cyclopropylamino-quinazolin-6-yl)-benzyl]-amide]
7350 nM | CC(=O)N(C1CC1)C(C)c1cccc(-c2ccc3ncnc(NC4CC4)c3c2)c1 (centres unmarked) [Example 235, N-cyclopropyl-N-{1-[3-(4-cyclopropylamino-quinazolin-6-yl)-phenyl]-ethyl}-acetamide]
2570 nM | O=S(=O)(c1ccccc1)N(Cc1cccc(-c2ccc3ncnc(NC4CC4)c3c2)c1)C1CC1 [Example 227, N-cyclopropyl-N-(3-(4-(cyclopropylamino)quinazolin-6-yl)benzyl)benzole sulfonamide]
1480 nM | O=S(=O)(CC(F)(F)F)N(Cc1cccc(-c2ccc3ncnc(NC4CC4)c3c2)c1)C1CC1 [Example 225, N-cyclopropyl-N-(3-(4-(cyclopropylamino)quinazolin-6-yl)benzyl)-2,2,2-trifluoroethane sulfonamide]
90 nM | CC(C)(C)CNc1ncnc2ccc(-c3cccc(CN4C(=O)CCC4=O)c3)cc12 [Example 866, 1-(3-(4-(neopentylamino)quinazolin-6-yl)benzyl)pyrrolidine-2,5-dione]

Same assay, conditions: 10 μM compound, 5 nM [3H]-MPEP

% Inhibition of mGluR5 Receptor (pig) [^3H]-MPEP Bond at 10 μM | Compound
36% | CC(C)(C)Nc1ncnc2ccc(-c3ccc(F)c(CN(C4CC4)S(=O)(=O)c4ccc(Cl)cc4Cl)c3)cc12 [Example 857, N-(5-(4-(tert-butylamino)quinazolin-6-yl)-2-fluorobenzyl)-2,4-dichloro-N-cyclopropyl benzole sulfonamide]
92% | O=S(=O)(c1ccccc1)N(Cc1cc(-c2ccc3ncnc(NC4CC4)c3c2)ccc1Cl)C1CC1 [Example 799, N-(2-chloro-5-(4-(cyclopropylamino)quinazolin-6-yl)benzyl)-N-cyclopropyl benzole sulfonamide]

Compound | % Inhibition of mGluR5 Receptor (pig) [^3H]-MPEP Bond at 10 μM
CC(C)(C)Nc1ncnc2ccc(-c3ccc(F)c(CN(C4CC4)S(=O)(=O)Cc4ccccc4)c3)cc12 [Example 833, N-(5-(4-(tert-butylamino)quinazolin-6-yl)-2-fluorobenzyl)-N-cyclopropyl-1-phenyl methane sulfonamide] | 43%

Same assay, conditions: 10 μM compound, 5 nM [3H]-MPEP, read-out: % Inhibition of mGluR5 Receptor (pig) [^3H]-MPEP Bond at 10 μM

inhibition at 10 µM | Compound
81% | N#CCC(=O)N(Cc1ccc(F)c(-c2ccc3ncnc(NC4CC4)c3c2)c1)C1CC1 [Example 900, 2-cyano-N-cyclopropyl-N-(3-(4-(cyclopropylamino)quinazolin-6-yl)-4-fluorobenzyl)acetamide]
63% | O=C(c1cccc(C(F)(F)F)c1)N(Cc1cccc(-c2cc(F)c3ncnc(NC4CC4)c3c2)c1)C1CC1 [Example 728, N-cyclopropyl-N-(3-(4-(cyclopropylamino)-8-fluoroquinazolin-6-yl)benzyl)-3-(trifluoromethyl)benzamide]
77% | O=S(=O)(c1cccs1)N(Cc1cc(-c2ccc3ncnc(NC4CC4)c3c2)ccn1)C1CC1 [Example 788, N-cyclopropyl-N-((4-(4-(cyclopropylamino)quinazolin-6-yl)pyridin-2-yl)methyl)thiophene-2-sulfonamide]
53% | CN(C)CC(=O)N(Cc1cccc(-c2cc(F)c3ncnc(NC4CC4)c3c2)c1)C1CC1 [Example 751, N-cyclopropyl-N-(3-(4-(cyclopropylamino)-8-fluoroquinazolin-6-yl)benzyl)-2-(dimethylamino)acetamide]
51% | Cc1cc2ncnc(NC3CC3)c2cc1-c1cccc(CN(C2CC2)S(=O)(=O)Cc2ccccc2)c1 [Example 713, N-cyclopropyl-N-(3-(4-(cyclopropylamino)-7-methylquinazolin-6-yl)benzyl)-1-phenylmethane sulfonamide]
76% | O=C(c1ccno1)N(Cc1cccc(-c2cc(F)c3ncnc(NC4CC4)c3c2)c1)C1CC1 [Example 775, N-cyclopropyl-N-(3-(4-(cyclopropylamino)-8-fluoroquinazolin-6-yl)benzyl)isoxazole-5-carboxamide]
93% | O=C(c1c(F)c(F)c(F)c(F)c1F)N(Cc1cc(-c2ccc3ncnc(NC4CC4)c3c2)ccn1)C1CC1 [Example 803, N-cyclopropyl-N-((4-(4-(cyclopropylamino)quinazolin-6-yl)pyridin-2-yl)methyl)-2,3,4,5,6-pentafluorobenzamide]
40% | CN(c1ncnc2ccc(-c3cccc(CN4C(=O)CCC4=O)c3)cc12)C1CC1 [Example 901, 1-(3-(4-(cyclopropyl(methyl)amino)quinazolin-6-yl)benzyl)pyrrolidine-2,5-dione]

Continued, compound first:

Compound | inhibition at 10 µM
CC(=O)N(Cc1cccc(-c2ccc3ncnc(NCCc4ccccc4)c3c2)c1)C1CC1 [Example 393, N-cyclopropyl-N-(3-(4-(phenethylamino)quinazolin-6-yl)benzyl)acetamide] | 95%
O=C(c1cccc(F)c1)N(Cc1cc(-c2ccc3ncnc(NC4CC4)c3c2)ccc1F)C1CC1 [Example 374, N-cyclopropyl-N-(5-(4-(cyclopropylamino)quinazolin-6-yl)-2-fluorobenzyl)-3-fluorobenzamide] | 91%
O=C1CCC(=O)N1Cc1cccc(-c2ccc3nc(NCc4ccccc4)nc(NC4CC4)c3c2)c1 [Example 291, 1-(3-(2-(benzylamino)-4-(cyclopropylamino)quinazolin-6-yl)benzyl)pyrrolidine-2,5-dione] | 49%
COc1ccc(C(=O)N(Cc2cccc(-c3cc(F)c4ncnc(NC5CC5)c4c3)c2)C2CC2)cc1OC [Example 700, N-cyclopropyl-N-(3-(4-(cyclopropylamino)-8-fluoroquinazolin-6-yl)benzyl)-3,4-dimethoxybenzamide] | 81%
O=S(=O)(Cc1ccccc1)N(Cc1cc(-c2ccc3ncnc(NC4CC4)c3c2)ccc1F)C1CC1 [Example 437, N-cyclopropyl-N-(5-(4-(cyclopropylamino)quinazolin-6-yl)-2-fluorobenzyl)-1-phenylmethane sulfonamide] | 90%
O=C(c1ccccc1)N(Cc1cccc(-c2cc(F)c3ncnc(NC4CC4)c3c2)c1)C1CC1 [Example 693, N-cyclopropyl-N-(3-(4-(cyclopropylamino)-8-fluoroquinazolin-6-yl)benzyl)benzamide] | 102%
N#CCNCc1cccc(-c2ccc3ncnc(NC4CC4)c3c2)c1 [Example 320, 2-(3-(4-(cyclopropylamino)quinazolin-6-yl)benzylamino)acetonitrile] | 72%
CC(C)S(=O)(=O)N(C)Cc1cc(-c2ccc3ncnc(NCc4ccccc4)c3c2)ccc1F [Example 484, N-(5-(4-(benzylamino)quinazolin-6-yl)-2-fluorobenzyl)-N-methylpropane-2-sulfonamide] | 63%
O=S(=O)(c1cccc2cccnc12)N(Cc1cccc(-c2cc(F)c3ncnc(NC4CC4)c3c2)c1)C1CC1 [Example 709, N-cyclopropyl-N-(3-(4-(cyclopropylamino)-8-fluoroquinazolin-6-yl)benzyl)quinoline-8-sulfonamide] | 36%
O=C(c1ccccc1C(F)(F)F)N(Cc1cccc(-c2ccc3ncnc(N4CCCC4)c3c2)c1)C1CC1 [Example 135, N-cyclopropyl-N-[3-(4-pyrrolidin-1-yl-quinazolin-6-yl)-benzyl]-2-trifluoromethyl-benzamide] | 32%
COc1ccc(CNc2ncnc3ccc(-c4cccc(CN(C(C)=O)C5CC5)c4)cc23)c(OC)c1 [Example 657, N-cyclopropyl-N-(3-(4-(2,4-dimethoxybenzylamino)quinazolin-6-yl)benzyl)acetamide] | 36%
Cc1cc2ncnc(NC3CC3)c2cc1-c1cccc(CN(C(=O)c2cccc(F)c2)C2CC2)c1 [Example 652, N-cyclopropyl-N-(3-(4-(cyclopropylamino)-7-methylquinazolin-6-yl)benzyl)-3-fluorobenzamide] | 93%
Cc1nc(C(=O)N(Cc2cccc(-c3ccc4ncnc(NCCc5ccccc5)c4c3)c2)C2CC2)cs1 [Example 609, N-cyclopropyl-2-methyl-N-(3-(4-(phenethylamino)quinazolin-6-yl)benzyl)thiazole-4-carboxamide] | 30%
Cc1cc2ncnc(NC3CC3)c2cc1-c1cccc(CN(C2CC2)S(=O)(=O)C(C)C)c1 [Example 705, N-cyclopropyl-N-(3-(4-(cyclopropylamino)-7-methylquinazolin-6-yl)benzyl)propane-2-sulfonamide] | 86%
O=C(c1ccccn1)N(Cc1cccc(-c2ccc3ncnc(NCCc4ccccc4)c3c2)c1)C1CC1 [Example 370, N-cyclopropyl-N-(3-(4-(phenethylamino)quinazolin-6-yl)benzyl)picolinamide] | 52%

Same assay, conditions: IC50 mGluR5 Receptor (pig) [^3H]-MPEP Bond, 5 nM [3H]-MPEP

Compound | IC50
O=C(CF)N(Cc1cccc(-c2ccc3ncnc(NC4CC4)c3c2)c1)C1CC1 [Example 208, N-cyclopropyl-N-[3-(4-cyclopropylamino-quinazolin-6-yl)-benzyl]-2-fluoro-acetamide] | 120 nM
